The source of these data is EP0590919A1, “Therapeutic agents for parkinson's disease” (KYOWA HAKKO KOGYO CO., LTD., priority 1992, dated 1994).

A word on the inhibition: it is the relative decrease from the control value, in per cent. The Ki is a measure of affinity in units of concentration, obtained from inhibition or displacement.

Like-named read-outs stand apart in the source and are kept apart here. Marks after values point to notes of the source that are not given here.

The subject of data set [1] is MPTP-treated C57BL/6 mice. As to the kind of experiment: Effect on locomotor activity in Parkinson's disease model in mice (MPTP). It is filed as in vivo. The settings on record: for Amount of Active Movements (average count ± S.E.M): MPTP (+). As to the method: The experiment was performed by using several groups of 7-weeks-old male C57BL/6 mice (weighing 20 to 24 g, Japan SLC), each group consisting of 8 mice. MPTP (Aldrich Chemical Co., Inc.) dissolved in a physiological saline solution (Otsuka Pharmaceutical Co., Ltd.) was intraperitoneally administered to each mouse once a day for five consecutive days at a dose of 30 mg/kg. A test compound was suspended in injectable distilled water (Otsuka Phamaceutical Co., Ltd.) containing Tween 80 [polyoxyethylene (20) sorbitan monooleate]. L-DOPA (Kyowa Hakko Kogyo Co., Ltd.) was suspended in 0.3% CMC (sodium carboxylmethylcellulose) and bromocriptine was suspended in injectable distilled water. Thirty minutes after the final MPTP administration, the test compound suspensions and the control suspension [injectable distilled water (Otsuka Pharmaceutical Co., Ltd.) containing Tween 80] containing no test compound were orally administered to separate groups of the mice (0.1 ml per 10 g of body weight). […] Statistical comparison of the values was carried out by Student's t-test.

In data set [2] the test system is Haloperidol-Induced Catalepsy. As to the kind of experiment: Effect on haloperidol-induced catalepsy. The format is in vivo, mice. The following applies: for ED50: Mus musculus, 1 h, read-out: ED₅₀; for Number of the Animals Showing Remission: of five mice, catalepsy score not more than 4 points; for Number of the Animals Showing Remission / Remission Rate (%) / Total Score: 10 mg/kg orally; for Remission Rate (%): rate of decrease in total score based on control group; for Total Score: total catalepsy score of five mice (25 points at the full), haloperidol 1.0 mg/kg i.p. The method in brief:
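Mice got haloperidol 1.0 mg/kg i.p. in 0.3% CMC, then test compounds orally 1 hr later in 0.3% CMC or Tween 80/water. Catalepsy was scored on a 4.5 cm-high bar 1 hr after dosing; remission meant score ≤4 points. ED₅₀ came from Probit analysis.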

The target of data set [3] is T1, A₂ receptor (Rattus norvegicus, UniProt P30543).
T1 construct: from tissue; host or cells: rat corpus striatum membrane preparation
T1 sequence (P30543 whole entry): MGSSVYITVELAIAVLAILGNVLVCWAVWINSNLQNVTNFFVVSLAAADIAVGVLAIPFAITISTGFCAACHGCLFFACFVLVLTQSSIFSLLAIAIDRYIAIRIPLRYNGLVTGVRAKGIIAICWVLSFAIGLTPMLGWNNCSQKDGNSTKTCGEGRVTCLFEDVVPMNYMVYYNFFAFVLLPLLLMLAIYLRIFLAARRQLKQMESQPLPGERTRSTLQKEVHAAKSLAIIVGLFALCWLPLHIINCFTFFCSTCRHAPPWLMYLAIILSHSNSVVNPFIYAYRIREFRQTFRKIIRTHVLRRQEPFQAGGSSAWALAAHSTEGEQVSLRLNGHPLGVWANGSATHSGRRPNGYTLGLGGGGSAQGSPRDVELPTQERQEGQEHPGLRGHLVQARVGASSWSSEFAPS
Briefly: Adenosine A₂ receptor binding test (³H-NECA binding). The following applies: for inhibition at 0.1 µM / inhibition at 1 µM / inhibition at 10 µM / inhibition at 100 µM: read-out: Inhibition (%) A₂ Receptor; for Ki: ³H-NECA binding.

The subject of a further data set is dd-strain male mice. Briefly: Acute toxicity test (minimum lethal dose, oral). The format is in vivo. The settings on record: oral administration, three mice per group, mortality seven days after administration. As to the method:
Test compounds were orally administered to groups of dd-strain male mice weighing 20 ± 1 g, each group consisting of three mice. Seven days after the administration, minimum lethal dose (MLD) of each compound was determined by observing the mortality.

A further data set concerns the target T2, A₁ receptor (Cavia porcellus, UniProt P47745).
T2 construct: from tissue; host or cells: guinea pig cerebrum membrane preparation
T2 sequence (P47745 1-326): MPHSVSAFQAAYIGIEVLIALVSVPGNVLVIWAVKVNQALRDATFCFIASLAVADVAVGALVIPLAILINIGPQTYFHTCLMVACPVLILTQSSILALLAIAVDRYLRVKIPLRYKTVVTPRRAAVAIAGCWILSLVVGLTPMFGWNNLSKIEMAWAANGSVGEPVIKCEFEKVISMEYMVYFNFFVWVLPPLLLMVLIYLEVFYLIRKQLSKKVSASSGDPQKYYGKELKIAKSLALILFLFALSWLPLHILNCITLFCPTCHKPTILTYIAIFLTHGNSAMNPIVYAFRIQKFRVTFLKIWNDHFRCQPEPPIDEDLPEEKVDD
Briefly: Adenosine A₁ receptor binding test (³H-CHA binding). More on the design: species or system guinea pig. The following applies: for inhibition at 100 µM: 10⁻⁴M; for inhibition at 100 µM / inhibition at 10 µM: guinea pig cerebrum; for inhibition at 10 µM: 10⁻⁵M. The procedure:
Cerebrum of a guinea pig was suspended in ice-cooled 50 mM Tris hydroxymethyl aminomethane hydrochloride (Tris HCl) buffer (pH 7.7) by using Polytron homogenizer (manufactured by […] Co.). […] The suspension was centrifuged under the same conditions, and the final precipitate was suspended once again in 50 mM Tris HCl buffer to give a tissue concentration of 100 mg (wet weight)/ml. The tissue suspension was incubated at 37°C for 30 minutes in the presence of 0.02 unit/mg tissue of adenosine deaminase (manufactured by Sigma Co.). The tissue suspension was then centrifuged (50,000 x g, 10 minutes), and 50 mM Tris HCl buffer was added to the precipitate to adjust the concentration of tissue to 10 mg (wet weight)/ml. […] The mixture solution was allowed to stand at 25°C for 90 minutes and then rapidly filtered by suction through a glass fiber filter (GF/C manufactured by Whatman Co.). […] The radioactivity on the filter was determined with a liquid scintillation counter (manufactured by Packard Instrument Co.). […] The inhibition constant (Ki value) shown in the table was calculated by the Cheng-Prusoff's equation.

The test system of data set [4] is Rats with a 6-Hydroxydopamine-Induced Unilateral Lesion of the Nigrostriatal Dopamine Pathway. As to the kind of experiment: Augmentation of apomorphine-induced contralateral rotation in 6-hydroxydopamine-lesioned rats. It is filed as in vivo. The following applies: test compound 1 mg/kg orally 30 minutes before apomorphine 0.1 mg/kg s.c.; 150 minutes. As to the method: Then, the animals were anesthetized with sodium pentobarbital (30 mg/kg, i.p., Dainippon Pharm. Co., Ltd.) and the nigrostriatal pathway was lesioned by injection of 6-hydroxydopamine hydrobromide (8 µg, Sigma Co.) into the left medial forebrain bundle. 6-Hydroxydopamine hydrobromide was dissolved in physiological saline containing 0.05% L-ascorbic acid (Wako Pure Chem. Industries, Ltd.) to make 2 µl of solution and injected over 3 minutes.
More than 10 days after surgery, each rat was placed in a plastic bowl (30 cm in diameter). […] The number of rotations was counted with an automated rotometer, in which each 180° turn was counted as a rotation.
Test compounds were suspended in 0.3% sodium carboxymethylcellulose and administered orally at a dose of 1 mg/kg 30 minutes before the injection of apomorphine (0.1 mg/kg, s.c.). The counts of rotations were summed up every 5 minutes for 150 minutes after apomorphine administration. The total rotation counts induced by apomorphine (0.1 mg/kg, s.c.) with and without a test compound were statistically compared, using the same animals. Rats were allowed to rest more than 5 days between each experiment. Statistical comparison of the values was carried out by Sign-Wilcoxon test.

In data set [5] the target is T1, A₂ receptor. Briefly: Adenosine A₂ receptor binding test (³H-CGS 21680 binding). The settings on record: [^3H]CGS 21680 was used, rat corpus striatum, read-out: A2 Receptor Inhibition (%). In a few lines: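 Rat corpus striatum membranes (5 mg wet weight/ml) in 50 mM Tris HCl with 10 mM MgCl2 and adenosine deaminase, incubated with 4.0 nM ³H-CGS 21680. Nonspecific binding defined with 100 µM CPA; percent inhibition of specific binding calculated at single test concentrations.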

Setting [6] is: ten mice at each dose, effective = catalepsy score 3 or less, Probit analysis, oral.
The mark [7] stands for this setting: test compound 2.5 mg/kg orally, 30 minutes starting 30 minutes after administration.
Where [8] appears, read: test compound 10 mg/kg orally, 30 minutes starting 30 minutes after administration.

For the molecule `CC(C)C[C@H]1C(=O)N2CCC[C@H]2[C@]2(O)O[C@](NC(=O)[C@@H]3C=C4c5cccc6[nH]c(Br)c(c56)C[C@H]4N(C)C3)(C(C)C)C(=O)N12` [Bromocriptine, bromocriptine, reference compound], the “inhibitory activity against the depression of locomotor activity caused by MPTP” value in data set [1] (mouse, in vivo) is recorded as “only a weak inhibitory activity”.
For the molecule `COc1ccc(/C=C/c2nc3c(c(=O)n(C)c(=O)n3C)n2C)c(OC)c1OC` [Compound 20, (E)-8-(2,3,4-Trimethoxystyryl)caffeine], the ED50 in data set [2] (setting [6]) is 0.35 mg/kg. For the same molecule, in data set [2], the “Number of the Animals Showing Remission” value was 5, the “Remission Rate (%)” value is listed as 72% and the “Total Score” value worked out at 7. For the same molecule, the “Ratio (A₁/A₂)” value on A₂ receptor [3] (ratio of Ki values A₁/A₂) is > 2,000. On A₂ receptor [3], the inhibition at 0.1 µM came to 51%, the inhibition at 1 µM was determined as 83%, the inhibition at 10 µM was 90% and the inhibition at 100 µM was found to be 88%. Moreover, the Ki on A₂ receptor [3] came out at 50 nM. For the same molecule, in the data set with dd-strain male mice, the MLD is on record as more than 300 mg/kg. Further, at A₁ receptor, the inhibition at 100 µM came to 1% and the inhibition at 10 µM came to 11%. The molecule further displayed a Ki at A₁ receptor (Cheng-Prusoff's equation) of more than 100000 nM. The “Amount of Active Movements (average count ± S.E.M)” value (“Amount of Active Movements” for short) in data set [1] (setting [7]) is 937 ±189.5 count.
Turning to `N[C@@H](Cc1ccc(O)c(O)c1)C(=O)O` [L-DOPA, reference compound], the “Amount of Active Movements” value in data set [1] (L-DOPA 300 mg/kg orally) is 561 ±271.01^1) count. The “inhibitory activity against the depression of locomotor activity caused by MPTP” value in data set [1] (oral, L-DOPA 300 mg/kg, bromocriptine 40 mg/kg, Compounds (I) 10 mg/kg or less than 10 mg/kg) is given as “only a weak inhibitory activity”.
As to `CCn1c(=O)c2c(nc(/C=C/c3ccc(OC)c(C)c3OC)n2C)n(CC)c1=O` [Compound 14, (E)-8-(2,4-Dimethoxy-3-methylstyryl)-1,3-diethyl-7-methylxanthine], in data set [4], the “total amount of rotations (average count ± S.E.M.) test compound + apomorphine” value (shortened to “total amount of rotations”) was 1378 ± 216 count. Further, the ED50 in data set [2] (po) stood at 0.6 mg/kg. Moreover, in data set [2], the “Number of the Animals Showing Remission” value amounted to 5, the “Remission Rate (%)” value worked out at 92% and the “Total Score” value is given as 1. At A₂ receptor [3], this molecule came in with an inhibition constant (Ki) of 1.6 nM. Besides, the MLD in the data set on dd-strain male mice is more than 300 mg/kg. Further, the “Amount of Active Movements” value in data set [1] (setting [8]) came to 817 ±163.1 count.
`CCn1c(=O)c2c(nc(/C=C/c3ccc(OC)c(OC)c3)n2C)n(CC)c1=O` [Compound 2, (E)-8-(3,4-Dimethoxystyryl)-1,3-diethyl-7-methylxanthine]: in data set [4], the “total amount of rotations” value is listed as 1584 ± 196 count. Besides, in data set [2] (setting [6]), the ED50 was 0.03 mg/kg. In addition, in data set [2], the “Number of the Animals Showing Remission” value was found to be 5, the “Remission Rate (%)” value came to 80% and the “Total Score” value came out at 2. In the data set with dd-strain male mice, the MLD was more than 300 mg/kg. In addition, the “Amount of Active Movements” value in data set [1] (test compound 0.63 mg/kg orally, 30 minutes starting 30 minutes after administration) is 610 ±147.9 count. Further, in data set [1] (setting [7]), the “Amount of Active Movements” value was 1265 ±316.9 count.
Take `CCn1c(=O)c2c(nc(/C=C/c3ccc(OC)c(C)c3C)n2C)n(CC)c1=O` [Compound 10, (E)-1,3-Diethyl-8-(4-methoxy-2,3-dimethylstyryl)-7-methylxanthine]: the “total amount of rotations” value in data set [4] came out at 1637 ± 127 count. The ED50 in data set [2] (setting [6]) is 0.24 mg/kg. Further, in data set [2], the “Number of the Animals Showing Remission” value came out at 5 and the “Remission Rate (%)” value stood at 68%. Besides, on A₂ receptor [3], the inhibition at 0.1 µM was found to be 91%, the inhibition at 1 µM is 94%, the inhibition at 10 µM worked out at 90% and the inhibition at 100 µM came out at 93%. Further, the inhibition constant (Ki) on A₂ receptor [3] came out at 2 nM. In the data set with dd-strain male mice, the MLD is listed as more than 300 mg/kg. For the same molecule, at A₁ receptor, the inhibition at 100 µM came out at 56% and the inhibition at 10 µM was found to be 57%. Besides, in data set [1] (setting [8]), the “Amount of Active Movements” value turned out to be 754 ±174.2 count.
Take `CCn1c(=O)c2c(nc(/C=C/c3cc(OC)c4c(c3)OCO4)n2C)n(CC)c1=O` [Compound 107, (E)-1,3-Diethyl-8-(3-methoxy-4,5-methylenedioxystyryl)-7-methylxanthine]: the inhibition at 1 µM on A₂ receptor [5] (10^-6M) was 84%. For the same molecule, the inhibition at 0.1 µM at A₂ receptor [5] (10^-7M) worked out at 93%. For the same molecule, the “total amount of rotations” value in data set [4] is on record as 1490 ± 146 count. In addition, the ED50 in data set [2] (setting [6]) is 0.01 mg/kg. In addition, in data set [2], the “Number of the Animals Showing Remission” value is 5, the “Remission Rate (%)” value is on record as 92% and the “Total Score” value stood at 3. In addition, the MLD with dd-strain male mice is reported as more than 100 mg/kg. Besides, the “Amount of Active Movements” value in data set [1] (setting [7]) was determined as 604 ±192.6 count.
Turning to `CCn1c(=O)c2c(nc(/C=C/c3ccc4c(c3)OCCO4)n2C)n(CC)c1=O` [Compound 18, (E)-8-[2-(1,4-Benzodioxan-6-yl)vinyl]-1,3-diethyl-7-methylxanthine], in data set [2] (setting [6]), the ED50 was 1.9 mg/kg. For the same molecule, in data set [2], the “Number of the Animals Showing Remission” value is 5, the “Remission Rate (%)” value stood at 84% and the “Total Score” value was determined as 4. Further, on A₂ receptor [3], the inhibition at 0.1 µM was found to be 84%, the inhibition at 1 µM was 90%, the inhibition at 10 µM is 104% and the inhibition at 100 µM came to 98%. The molecule further displayed an inhibition constant Ki on A₂ receptor [3] of 1.5 nM. Also, the MLD in the data set with dd-strain male mice is given as more than 300 mg/kg. Further, at A₁ receptor, the inhibition at 100 µM turned out to be 66% and the inhibition at 10 µM was found to be 56%.
